For assay [1], the system named is P. falciparum (NF54 or 3D7 strain). The assay can be described thus: P. falciparum proliferation assay in infected human blood cells (SYBR Green). Conditions: Plasmodium falciparum, Erythrocyte; infected human erythrocytes, 72 hours, SYBR Green fluorescence; read-out: EC50 (nM), inhibitory efficacy in delaying P. falciparum proliferation in infected human blood cells. The class given is cell-based. A digest of the protocol:
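Asexual NF54 or 3D7 parasites in O+ human erythrocytes (final 2.5% hematocrit, 0.3% parasitemia) exposed to compound for 72 h at 37 °C under 93% N2/4% CO2/3% O2. Lysis with SYBR Green I overnight at rt; fluorescence (ex 425/em 530 nm) tracks parasite DNA, giving EC50.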

In assay [2] the test system is Plasmodium yoelii (17XNL) sporozoites. The assay can be described thus: Liver stage P. yoelii sporozoite invasion assay in HepG2-A16-CD81EGFP cells. Conditions: values without * in Table 2, HepG2-A16-CD81EGFP liver cells, 48 hours, immunofluorescence, read-out: EC50 (nM), P. yoelii Sporozoite Invasion Assay. The class given is cell-based. The text has this:
Assay for Proliferation of Parasite in Infected Liver Cells
Compounds of the invention can be assayed to measure their capacity to inhibit proliferation of parasites in liver cells. The proliferation is quantified by determine the number of infected cells by immunofluorescence.
Due to the difficulty of successfully infecting immortalized human liver cell lines with the human malaria sporozoites (liver-stage parasite), rodent malaria sporozoites from Plasmodium yoelii (17XNL) and P. berghei (ANKA) are the preferred surrogate. Sporozoites are obtained from Anopheles stephensi mosquitoes supplied by the New York University Insectary, which ships the malaria-infected mosquitoes 10-13 days following the ingestion of an infective blood meal.
A transgenic HepG2 cell line expressing the tetraspanin CD81 receptor (HepG2-A16-CD81^EGFP) is used to increase the infectivity rate of rodent-malaria sporozoites into human cells. HepG2-A16-CD81^EGFP cells are stably transformed to express a GFP-CD81 fusion protein. A continuous in vitro culture of this line was maintained at 37° C. in 4% CO2 in complete media (CM) which contains: DMEM (Invitrogen, Carlsbad, USA) supplemented with 10% FCS, 0.29 mg/ml glutamine, 100 units penicillin and 100 μg/ml streptomycin (SigmaAldrich, USA).
Liver Stage P. yoelii Sporozoite Invasion Assay
Twenty to twenty-six hours prior to sporozoite infection, 7.5×10^3 HepG2-A16-CD81^EGFP cells are seeded into 384-well plates (Aurora 384 IQ-EB black plates with clear bottoms; 50 μl of 1.5×10^5 cells/ml in CM). These plates are incubated at 37° C. with 4% CO2 overnight. Two hours prior to infection, 50 nl of compound dissolved in DMSO (0.1% final DMSO concentration per well) were transferred with a PinTool (GNF Systems) into the assay plates (10 μM final concentration). A 1:3 serial dilution of atovaquone (10 μM at the highest final concentration) and wells treated only with DMSO were used as positive and negative controls, respectively.
Freshly dissected salivary glands from infected mosquitoes were homogenized in a glass tissue grinder, filtered twice through Nylon cell strainers (40 μm pore size, BD Falcon) and counted using a hemocytometer. The assay plate with HepG2-A16-CD81^EGFP cells and compound were then infected with 8×10^3 sporozoitesper well and the plates are subjected to a centrifugal force of 650×g to pellet the sporozoites onto the liver cell monolayer. The assay plate is incubated at 37° C. for 2 hours to permit sporozoite invasion, then the media is aspirated from the media plate, and replaced with 50 μl CM (containing a 5× concentration of penicillin/streptomycin; 500 units penicillin and 0.5 mg streptomycin per ml) per well. 50 nl of compound is re-introduced by PinTool and the assay plate incubated for 48 hours at 37° C. before quantification of infected cells by immunofluorescence.
Atovaquone and uninfected wells were used as controls on each plate. Two replicate plates are tested for each assay.
After fixing the cells by addition of 12.5 μl of 20% solution of paraformaldehyde (EMS, Hatfield, USA) to each assay well (4% final formaldehyde concentration), membranes were permeabilized with 0.5% Triton-X-100 (Thermo Fisher Scientific) and EEFs were stained using a mouse polyclonal serum raised against the Plasmodium yoelii heat shock protein 70 (PyHSP70), a DyLight 649 goat anti-mouse IgG, Fc(gamma) fragment specific secondary antibody (Jackson Immuno Research, Cat#115-495-071) and the Hoechst 33342 nucleic acid dye (Invitrogen, Carlsbad, USA). Stained EEFs were then quantified using the Opera Confocal High Content Screening System (Perkin Elmer, Waltham, USA). Images were collected using a 20× objective lens (20×/0.45 NA, LWD Plan Fluor, Olympus) at a binning of 2, using a 365 nm Xeon arc lamp illumination to detect the Hoechst-labeled nuclei and 635 nm laser line to excite DyLight649-labeled parasites. The image resolution yielded was approximately 0.66 μm/pixel (˜0.43 μm 2/pixel). […]

The structures appear in SMILES notation.

As for `CN(C(=O)c1ccn2ncc(-c3cnc(Cl)c(N)c3)c2c1)c1ccc(C#N)cn1` [Example 98, 3-(5-Amino-6-chloropyridin-3-yl)-N-(5-cyanopyridin-2-yl)-N-methylpyrazolo[1,5-a]pyridine-5-carboxamide], the EC50 came to 19 nM in assay [1] and 2060 nM in assay [2].

`CNC(=O)c1ccc(-c2cnn3ccc(C(=O)N(C)c4ccc(Cl)cc4)cc23)cc1` [Example 99, N-(4-Chlorophenyl)-N-methyl-3-(4-(methylcarbamoyl)phenyl)pyrazolo[1,5-a]pyridine-5-carboxamide]: the EC50 in assay [1] turned out to be 1 nM; in assay [2], 15 nM.

For `CN(C(=O)c1ccn2ncc(-c3ccc(C(N)=O)cc3)c2c1)c1ccc(Cl)cc1` [Example 100, 3-(4-Carbamoylphenyl)-N-(4-chlorophenyl)-N-methylpyrazolo[1,5-a]pyridine-5-carboxamide], the EC50 was found to be 9 nM in assay [1] and 20 nM in assay [2].

As to `CN(C(=O)c1ccn2ncc(-c3ccc(C(=O)NCCO)cc3)c2c1)c1ccc(C#N)cn1` [Example 102, N-(5-Cyanopyridin-2-yl)-3-(4-((2-hydroxyethyl)carbamoyl)phenyl)-N-methylpyrazolo[1,5-a]pyridine-5-carboxamide], the EC50 in assay [1] is 10 nM; in assay [2] it was 660 nM.

Turning to `CNC(=O)c1ccc(-c2cnn3ccc(C(=O)N(C)c4ccc(C(F)(F)F)cc4)cc23)cc1` [Example 103, N-Methyl-3-(4-(methylcarbamoyl)phenyl)-N-(4-(trifluoromethyl)phenyl)pyrazolo[1,5-a]pyridine-5-carboxamide], the EC50 in assay [1] stood at 3 nM; in assay [2], 62 nM.

On to `CN(C(=O)c1ccn2ncc(-c3ccc(C(=O)NCCN)cc3)c2c1)c1ccc(C#N)cn1` [Example 104, 3-(4-((2-Aminoethyl)carbamoyl)phenyl)-N-(5-cyanopyridin-2-yl)-N-methylpyrazolo[1,5-a]pyridine-5-carboxamide], for which the EC50 in assay [1] was 125 nM; in assay [2], 1200 nM.

Consider `CN(C(=O)c1ccn2ncc(-c3cnc(Cl)c(NS(C)(=O)=O)c3)c2c1)c1ccc(C#N)cn1` [Example 107, 3-(6-Chloro-5-(methylsulfonamido)pyridin-3-yl)-N-(5-cyanopyridin-2-yl)-N-methylpyrazolo[1,5-a]pyridine-5-carboxamide], for which the EC50 in assay [1] came to 10 nM; in assay [2], 180 nM.

As for `CN(C(=O)c1ccn2ncc(-c3ccnc(N)c3)c2c1)c1ccc(C#N)cn1` [Example 108, 3-(2-Aminopyridin-4-yl)-N-(5-cyanopyridin-2-yl)-N-methylpyrazolo[1,5-a]pyridine-5-carboxamide], the EC50 in assay [1] turned out to be 2470 nM; in assay [2], 472 nM.

In the case of `CNC(=O)c1ccc(-c2cnn3ccc(C(=O)N(C)c4ccc(Cl)cc4)cc23)cn1` [Example 109, N-(4-Chlorophenyl)-N-methyl-3-(6-(methylcarbamoyl)pyridin-3-yl)pyrazolo[1,5-a]pyridine-5-carboxamide], the figures for the EC50 in assay [1] and in assay [2] were 19 nM and 62 nM, respectively.

As to `CNC(=O)c1ccc(-c2cnn3ccc(C(=O)N(CCO)c4ccc(C#N)cc4)cc23)cc1` [Example 110, N-(4-Cyanophenyl)-N-(2-hydroxyethyl)-3-(4-(methylcarbamoyl)phenyl)pyrazolo[1,5-a]pyridine-5-carboxamide], the EC50 in assay [1] worked out at 54 nM; in assay [2], 253 nM.

With `CNC(=O)c1ccc(-c2cnn3ccc(C(=O)N(C)c4ccc(OCCN)cn4)cc23)cc1` [Example 111, N-(5-(2-Aminoethoxyl)pyridin-2-yl)-N-methyl-3-(4-(methylcarbamoyl)phenyl)pyrazolo[1,5-a]pyridine-5-carboxamide], the EC50 in assay [1] was 6300 nM; in assay [2], above 10000 nM.

For the compound `CNC(=O)c1ccc(-c2cnn3ccc(C(=O)N(c4ccc(C#N)cn4)C4CCC4)cc23)cc1` [Example 112, N-(5-Cyanopyridin-2-yl)-N-cyclobutyl-3-(4-(methylcarbamoyl)phenyl)pyrazolo[1,5-a]pyridine-5-carboxamide], the EC50 in assay [1] came out at 4 nM; in assay [2] it was 9 nM.

For `CN(C(=O)c1ccn2ncc(-c3ccc(C(=O)NC4CCNCC4)cc3)c2c1)c1ccc(C#N)cn1` [Example 113, N-(5-Cyanopyridin-2-yl)-N-methyl-3-(4-(piperidin-4-ylcarbamoyl)phenyl)pyrazolo[1,5-a]pyridine-5-carboxamide], the values for the EC50 in assay [1] and in assay [2] were 311 nM and 1650 nM, respectively.

Take `CNCCNC(=O)c1ccc(-c2cnn3ccc(C(=O)N(C)c4ccc(C#N)cn4)cc23)cc1` [Example 114, N-(5-Cyanopyridin-2-yl)-N-methyl-3-(4-((2-(methylamino)ethyl)carbamoyl)phenyl)pyrazolo[1,5-a]pyridine-5-carboxamide]: the EC50 in assay [1] worked out at 52 nM; in assay [2] it was 950 nM.

Regarding `CN(C)CCNC(=O)c1ccc(-c2cnn3ccc(C(=O)N(C)c4ccc(C#N)cn4)cc23)cc1` [Example 115, N-(5-cyanopyridin-2-yl)-3-(4-((2-(dimethylamino)ethyl)carbamoyl)phenyl)-N-methylpyrazolo[1,5-a]pyridine-5-carboxamide], the EC50 in assay [1] amounted to 155 nM; in assay [2], 79 nM.

As to `CNC(=O)c1ccc(-c2cnn3ccc(C(=O)N(c4ccc(Cl)cc4)C4CC4)cc23)cc1` [Example 116, N-(4-Chlorophenyl)-N-cyclopropyl-3-(4-(methylcarbamoyl)phenyl)pyrazolo[1,5-a]pyridine-5-carboxamide], the EC50 was determined as 1 nM in assay [1] and 3 nM in assay [2].

For `CNC(=O)c1ccc(-c2cnn3ccc(C(=O)N(CC4CC4)c4ccc(C#N)cn4)cc23)cc1` [Example 117, N-(5-Cyanopyridin-2-yl)-N-(cyclopropylmethyl)-3-(4-(methylcarbamoyl)phenyl)pyrazolo[1,5-a]pyridine-5-carboxamide], the EC50 in assay [1] worked out at 4 nM; in assay [2], 7 nM.

In the case of `CNC(=O)c1ccc(-c2cnn3ccc(C(=O)N(c4ccc(C#N)cc4)C4CC4)cc23)cc1` [Example 118, N-(4-Cyanophenyl)-N-cyclopropyl-3-(4-(methylcarbamoyl)phenyl)pyrazolo[1,5-a]pyridine-5-carboxamide], the EC50 is 3 nM in assay [1] and 1 nM in assay [2].

As to `CNC(=O)c1ccc(-c2cnn3ccc(C(=O)N(c4ccc(C#N)cn4)C(C)(C)C)cc23)cc1` [Example 119, N-(tert-Butyl)-N-(5-cyanopyridin-2-yl)-3-(4-(methylcarbamoyl)phenyl)pyrazolo[1,5-a]pyridine-5-carboxamide], the values for the EC50 in assay [1] and in assay [2] were 95 nM and 56 nM, respectively.

For the compound `CCN(C(=O)c1ccn2ncc(-c3ccc(S(=O)(=O)NC)cc3)c2c1)c1ccc(C#N)cn1` [Example 140, N-(5-cyanopyridin-2-yl)-N-ethyl-3-(4-[N-methylsulfamoyl]phenyl)pyrazolo[1,5-a]pyridine-5-carboxamide], the values for the EC50 in assay [1] and in assay [2] were 199 nM and 84 nM, respectively.
